Measurements reported in patent US20100120050A1, “Biomarkers For Assessing Altherosclerotic Potential” (ENTELOS, INC., priority 2008, published 2010).
Read-outs that look alike come from different tables or passages of the source.

Tested on: hepatic genes (liver)
Protocol: While the molecular target for PPARγ is not in the liver, it represents the effects of changes in metabolism of the whole animal, which impact liver lipoprotein production and clearance.
Male Sprague-Dawley (Crl:CD® (SD)(IGS)BR) rats (Charles River Laboratories, Portage, Mich.), weight matched, 7 to 8 weeks of age, were housed individually in hanging, stainless steel, wire-bottom cages in a temperature (66-77° F.), light (12-hour dark/light cycle) and humidity (30-70%) controlled room. Water and rodent diet were available ad libitum throughout the 5 day acclimatization period and during the 5 day treatment period. Housing and treatment of the animals were in accordance with regulations outlined in the USDA Animal Welfare Act (9 CFR Parts 1, 2 and 3).
Rats (three per group) were dosed daily at either a low or high dose. […] Animals were necropsied on days 0.25, 1, 3, and 5. Up to 13 tissues (e.g., liver, kidney, heart, bone marrow, blood, spleen, brain, intestine, glandular and nonglandular stomach, lung, muscle, and gonads) were collected for histopathological evaluation and microarray expression profiling on the Affymetrix Rat Whole Genome RG230 v2 platform. In addition, a clinical pathology panel consisting of 37 clinical chemistry and hematology parameters was generated from blood samples collected on days 3 and 5.
Gene expression profiling, data processing and quality control were performed using protocols recommended by. Briefly, liver samples from 3 rats were chosen at random from each treatment and control group for each timepoint for expression profile analysis on the Affymetrix Rat Whole Genome RG230 v2 microarray (Affymetrix, Santa Clara, Calif.). Log transformed signal data for all probes were array-wise normalized using the Affymetrix MASS algorithm. Expression log ratios of base 10 (log(10) ratios) were computed as the difference between the logs of the averaged normalized experimental signals and the averaged normalized time-matched vehicle control signals for each gene.

CCc1ccc(CCOc2ccc(CC3SC(=O)NC3=O)cc2)nc1 (stereo not drawn) [pioglitazone]
Average Log (10) Ratio: L-3-hydroxyacyl-Coenzyme A dehydrogenase, short chain (rat liver, probe AA891362, Rn.92789, oral gavage, experiments of Table 3): 0.375
Average Log (10) Ratio: acetyl-coenzyme A acetyltransferase 1 (rat liver, probe AA899304, Rn.4054, oral gavage, experiments of Table 3): 0.171
Average Log (10) Ratio: transferrin (rat liver, probe AA945548, Rn.91296, oral gavage, experiments of Table 3): −0.222
Average Log (10) Ratio: sterol regulatory element binding factor 1 (rat liver, probe AF286470, Rn.801, oral gavage, experiments of Table 3): −0.118
Average Log (10) Ratio: CCAAT/enhancer binding protein (C/EBP), delta (rat liver, probe AI176576, Rn.6975, oral gavage, experiments of Table 3): −0.035
Average Log (10) Ratio: fatty acid synthase (rat liver, probe AI179334, Rn.9486, oral gavage, experiments of Table 3): −0.411
Average Log (10) Ratio: peroxisome proliferator activated receptor alpha (rat liver, probe AI385341, Rn.9753, oral gavage, experiments of Table 3): 0.247
Average Log (10) Ratio: perilipin (rat liver, probe AI406700, Rn.9737, oral gavage, experiments of Table 3): −0.187
Average Log (10) Ratio: monoglyceride lipase (rat liver, probe AI713204, Rn.40396, oral gavage, experiments of Table 3): −0.118
Average Log (10) Ratio: phosphatidylinositol 3-kinase, C2 domain containing, gamma polypeptide (rat liver, probe AW526669, Rn.169550, oral gavage, experiments of Table 3): −0.240
Average Log (10) Ratio: monoglyceride lipase (rat liver, probe AY081195, Rn.40396, oral gavage, experiments of Table 3): −0.131
Average Log (10) Ratio: mitogen-activated protein kinase 8 (rat liver, probe BE105603, Rn.4090, oral gavage, experiments of Table 3): 0.332
Average Log (10) Ratio: ELOVL family member 6, elongation of long chain fatty acids (yeast) (rat liver, probe BF396857, Rn.46942, oral gavage, experiments of Table 3): −0.225
Average Log (10) Ratio: sterol regulatory element binding factor 1 (rat liver, probe BF398848, Rn.801, oral gavage, experiments of Table 3): −0.092
Average Log (10) Ratio: RIKEN cDNA 1500016L11 (DBSS) (rat liver, probe BF407188, Rn.15135, oral gavage, experiments of Table 3): −0.149
Average Log (10) Ratio: monoglyceride lipase (rat liver, probe BG372713, Rn.40396, oral gavage, experiments of Table 3): −0.110
Average Log (10) Ratio: Pyruvate carboxylase (rat liver, probe BG376902, Rn.11094, oral gavage, experiments of Table 3): 0.300
Average Log (10) Ratio: acetyl CoA transferase-like (DBSS) (rat liver, probe BG377636, Rn.98393, oral gavage, experiments of Table 3): 0.071
Average Log (10) Ratio: phospholipid transfer protein (DBSS) (rat liver, probe BI278687, Rn.117434, oral gavage, experiments of Table 3): −0.045
Average Log (10) Ratio: guanine nucleotide binding protein, alpha stimulating, olfactory type (rat liver, probe BI281656, Rn.39132, oral gavage, experiments of Table 3): −0.386
Average Log (10) Ratio: acetyl-Coenzyme A acyltransferase 2 (mitochondrial 3-oxoacyl-Coenzyme A thiolase) (rat liver, probe BI282488, Rn.3786, oral gavage, experiments of Table 3): 0.046
Average Log (10) Ratio: glycerol-3-phosphate acyltransferase, mitochondrial (rat liver, probe BI288209, Rn.44456, oral gavage, experiments of Table 3): −0.319
Average Log (10) Ratio: elongation of very long chain fatty acids (FEN1/Elo2, SUR4/Elo3, yeast)-like 3 (DBSS) (rat liver, probe BI292438, Rn.79322, oral gavage, experiments of Table 3): 0.334
Average Log (10) Ratio: NCI_CGAP_Emb2 cDNA clone IMAGE: 4176354 (rat liver, probe BI850137, Rn.83595, oral gavage, experiments of Table 3): 0.315
Average Log (10) Ratio: pyruvate dehydrogenase kinase, isoenzyme 3 (mapped) (rat liver, probe BM389330, Rn.18101, oral gavage, experiments of Table 3): −0.142
Average Log (10) Ratio: 3-hydroxy-3-methylglutaryl-Coenzyme A reductase (rat liver, probe BM390399, Rn.9437, oral gavage, experiments of Table 3): −0.018
Average Log (10) Ratio: sulfotransferase family 2A, dehydroepiandrosterone (DHEA)-preferring, member 1 (rat liver, probe D14989, Rn.91378, oral gavage, experiments of Table 3): 0.112
Average Log (10) Ratio: apolipoprotein E (rat liver, probe J02582, Rn.32351, oral gavage, experiments of Table 3): 0.410
Average Log (10) Ratio: stearoyl-Coenzyme A desaturase 1 (rat liver, probe J02585, Rn.1023, oral gavage, experiments of Table 3): 0.056
Average Log (10) Ratio: apolipoprotein B (rat liver, probe M14952, Rn.33815, oral gavage, experiments of Table 3): −0.303
Average Log (10) Ratio: NCI_CGAP_Emb2 cDNA clone IMAGE: 4176354 (rat liver, probe M15114, Rn.83595, oral gavage, experiments of Table 3): 0.052
Average Log (10) Ratio: malic enzyme 1 (rat liver, probe M30596, Rn.161920, oral gavage, experiments of Table 3): −0.083
Average Log (10) Ratio: glucokinase (rat liver, probe NM_012565, Rn.10447, oral gavage, experiments of Table 3): −0.220
Average Log (10) Ratio: serine (or cysteine) peptidase inhibitor, clade E, member 1 (rat liver, probe NM_012620, Rn.29367, oral gavage, experiments of Table 3): 0.049
Average Log (10) Ratio: adrenergic receptor, beta 1 (rat liver, probe NM_012701, Rn.87064, oral gavage, experiments of Table 3): 0.205
Average Log (10) Ratio: hexokinase 2 (rat liver, probe NM_012735, Rn.91375, oral gavage, experiments of Table 3): 0.300
Average Log (10) Ratio: guanylate cyclase 1, soluble, beta 3 (rat liver, probe NM_012769, Rn.87228, oral gavage, experiments of Table 3): −0.120
Average Log (10) Ratio: guanylate cyclase 1, soluble, beta 2 (rat liver, probe NM_012770, Rn.10933, oral gavage, experiments of Table 3): −0.120
Average Log (10) Ratio: mitogen activated protein kinase 10 (rat liver, probe NM_012806, Rn.9911, oral gavage, experiments of Table 3): 0.229
Average Log (10) Ratio: carnitine palmitoyltransferase 2 (rat liver, probe NM_012930, Rn.11389, oral gavage, experiments of Table 3): 0.030
Average Log (10) Ratio: 3-hydroxy-3-methylglutaryl-Coenzyme A reductase (rat liver, probe NM_013134, Rn.9437, oral gavage, experiments of Table 3): 0.086
Average Log (10) Ratio: transforming growth factor, beta 3 (rat liver, probe NM_013174, Rn.7018, oral gavage, experiments of Table 3): −0.086
Average Log (10) Ratio: carnitine palmitoyltransferase 1b, muscle (rat liver, probe NM_013200, Rn.6028, oral gavage, experiments of Table 3): 0.125
Average Log (10) Ratio: solute carrier family 10, member 2 (rat liver, probe NM_017222, Rn.85891, oral gavage, experiments of Table 3): −0.206
Average Log (10) Ratio: mitogen-activated protein kinase 9 (rat liver, probe NM_017322, Rn.9910, oral gavage, experiments of Table 3): −0.209
Average Log (10) Ratio: acyl-Coenzyme A oxidase 1, palmitoyl (rat liver, probe NM_017340, Rn.31796, oral gavage, experiments of Table 3): 0.165
Average Log (10) Ratio: transforming growth factor, beta 1 (rat liver, probe NM_021578, Rn.40136, oral gavage, experiments of Table 3): −0.047
Average Log (10) Ratio: protein kinase, AMP-activated, beta 2 non-catalytic subunit (rat liver, probe NM_022627, Rn.15423, oral gavage, experiments of Table 3): −0.432
Average Log (10) Ratio: transforming growth factor, beta 2 (rat liver, probe NM_031131, Rn.24539, oral gavage, experiments of Table 3): −0.378
Average Log (10) Ratio: carnitine palmitoyltransferase 1a, liver (rat liver, probe NM_031559, Rn.2856, oral gavage, experiments of Table 3): 0.341
Average Log (10) Ratio: protein kinase, AMP-activated, beta 1 non-catalytic subunit (rat liver, probe NM_031976, Rn.3619, oral gavage, experiments of Table 3): −0.188
Average Log (10) Ratio: ATP-binding cassette, sub-family D (ALD), member 1 (DBSS) (rat liver, probe NM_033352, Rn.177278, oral gavage, experiments of Table 3): 0.292
Average Log (10) Ratio: insulin-like growth factor binding protein, acid labile subunit (rat liver, probe NM_053329, Rn.164865, oral gavage, experiments of Table 3): −0.263
Average Log (10) Ratio: pyruvate dehydrogenase kinase, isoenzyme 4 (rat liver, probe NM_053551, Rn.30070, oral gavage, experiments of Table 3): −0.148
Average Log (10) Ratio: phosphatidylinositol 3-kinase, C2 domain containing, gamma polypeptide (rat liver, probe NM_053923, Rn.169550, oral gavage, experiments of Table 3): −0.055
Average Log (10) Ratio: pyruvate dehydrogenase E1 alpha 2 (rat liver, probe NM_053994, Rn.11126, oral gavage, experiments of Table 3): −0.171
Average Log (10) Ratio: nuclear receptor subfamily 0, group B, member 2 (rat liver, probe NM_057133, Rn.10712, oral gavage, experiments of Table 3): 0.034
Average Log (10) Ratio: hydroxyacyl-Coenzyme A dehydrogenase/3-ketoacyl-Coenzyme A thiolase/enoyl-Coenzyme A hydratase (trifunctional protein), beta subunit (rat liver, probe NM_133618, Rn.11253, oral gavage, experiments of Table 3): 0.182
Average Log (10) Ratio: ELOVL family member 5, elongation of long chain fatty acids (yeast) (rat liver, probe NM_134382, Rn.4243, oral gavage, experiments of Table 3): −0.191
Average Log (10) Ratio: Glycerol-3-phosphate dehydrate dehydrogenase (mtGPDH) mRNA, 3′UTR (rat liver, probe U08027, Rn.89705, oral gavage, experiments of Table 3): 0.026
Average Log (10) Ratio: glycerol-3-phosphate acyltransferase, mitochondrial (rat liver, probe U36771, Rn.44456, oral gavage, experiments of Table 3): −0.239
Average Log (10) Ratio: Cytochrome P450, family 2, subfamily b, polypeptide 2 (rat, in vivo, po): 0.275
Average Log (10) Ratio: cytochrome P450, family 2, subfamily b, polypeptide 13 (rat, in vivo, po): −0.015
Average Log (10) Ratio: cytochrome P450, family 3, subfamily a, polypeptide 13 (rat, in vivo, po): −0.242
Average Log (10) Ratio: cytochrome P450, family 7, subfamily a, polypeptide 1 (rat, in vivo, po): 0.320
Average Log (10) Ratio: cytochrome P450, family 8, subfamily b, polypeptide 1 (rat, in vivo, po): 0.351
